# Legend:
# Assay type in all cases: in vivo
# liver fibrosis = assay: CCl4-induced liver fibrosis in mice
# Experimental: Hydronidone anti-fibrotic effects were evaluated in several animal models of liver fibrosis, such as human serum albumin (HSA)-induced liver fibrosis in rats, dimethyl nitrosamine (DMN)-induced liver fibrosis in rats, and carbon tetrachloride (CCl4)-induced liver fibrosis in mice. […] In the CCl4-induced liver fibrosis in mice, Hydronidone effects were the most prominent at the doses of 3-10 mg/kg/day, although some effects were also shown at the dose of 1 mg/kg/day. In some embodiments, this dose range corresponds to human equivalent dose (HED) range of 15-50 mg. […] The HED of these rat doses are in the range of 100-2,400 mg which were all tested as safe in Phase I clinical trials of Hydronidone, with the 100 mg dose being […] the maximum daily dose of 360 mg (administered as 120 mg TID) administered to the subjects with liver fibrosis due to chronic Hepatitis B in the ongoing Phase II clinical study of efficacy and safety of Hydronidone in China.
# [1] = Double-blind placebo-controlled tolerability study of single and multiple ascending doses in healthy subjects (Example 6); conditions: for ALT / AST: one subject
# Description: The main objective of this study was to evaluate the tolerability of single and multiple ascending doses of Hydronidone in healthy subjects to support further Phase 1 studies as well to provide supportive information for dosage regimen in Phase II clinical trials.
# This was a randomized, double-blind, placebo-controlled, in-patient study of single and multiple escalating doses of Hydronidone in healthy Chinese male and female subjects, 18-45 years of age, satisfying all inclusion and exclusion criteria. Hydronidone 100 mg and 200 mg capsule dosage strengths were used in the study. In every cohort, the subjects were randomly assigned to Hydronidone or placebo at a ratio of 3:1.
# The single-dose component of the trial included 30 subjects that received 100 mg, 200 mg, 400 mg, 600 mg and 800 mg of Hydronidone, respectively (6 subjects/cohort). The post-dose observations were performed 24 hrs following the dosing. All subjects have completed the trial. […] Mild transient dizziness following administration of the test article was reported in one subject in each of the 800 mg Hydronidone and placebo cohorts. The dizziness resolved on its own, without sequelae. The post-dose values of some of the laboratory parameters were abnormal, both in Hydronidone and placebo groups. However, these changes were not considered clinically significant.
# The multiple-dose component of the trial included 20 subjects assigned to receive 600 mg (8 subjects) three times per day (TID) (total daily dose of 1800 mg), or 800 mg of Hydronidone (12 subjects) TID (total daily dose of 2400 mg) for ten (10) consecutive days. Due to several cases of AEs of hypertriglyceridemia (4 out of 8 subjects) observed in the Hydronidone 600 mg TID dose group, the subjects (n=8) in the Hydronidone TID 800 mg dose group were divided into two subgroups, each comprising of 4 subjects. […] Due to inadvertent omission of the blood glucose test in the first sub-group (all four subjects) of the Hydronidone 800 mg TID dose group at the final study visit, per Principal Investigator decision, the enrollment was extended to include new four (4) subjects, increasing the total number of subjects in this dose group to 12. The safety evaluations were performed pre-dose, on the Day 5 of dosing, and 24 hr after the last dose of the 10-day dosing period.
# [2] = system: CCl4 and western diet (WD) induced NASH; assay: (CCl4+HFD) induced NASH model in mice
# Description: The total NASH score was lower at dosage of 15 milligram per kilogram (mpk) and 50 mpk.
# [3] = 800 mg TID, fifth day of dosing
# [4] = 800 mg TID, repeated test on study day 6
smiles,measurement,setting,value
"Cc1ccc(=O)n(-c2ccc(O)cc2)c1 [Hydronidone, N-(4-hydroxyphenyl)-5-Methyl-2-pyridone]","anti-fibrotic effect (level of fibrosis, hydroxyproline, ALT, AST)",liver fibrosis,potent anti-fibrotic effect
same,dose at which some effects were also shown,liver fibrosis,1 mg/kg/day
same,doses at which effects were the most prominent,liver fibrosis,3 to 10 mg/kg/day
same,instances of hypertriglyceridemia,"[1]; 600 mg TID, 10 days",3 instances
same,number of AEs reported,"[1]; 600 mg TID, 10 days",7 AEs
same,instances of hyperlipidemia,"[1]; 800 mg TID, 10 days",3 instances
same,instances of liver dysfunction,"[1]; 800 mg TID, 10 days",3 instances
same,number of AEs reported,"[1]; 800 mg TID, 10 days",14 AEs
same,deaths and SAEs,"[1]; multiple-dose component, 600 or 800 mg TID, 10 days",No deaths nor SAEs were reported
same,ALT,[1]; [3],79 U/L
same,AST,[1]; [3],47 U/L
same,ALT,[1]; [4],101 U/L
same,AST,[1]; [4],61 U/L
same,subjects with mild transient dizziness,[1]; single dose 800 mg cohort,one
same,safety and tolerability,"[1]; single dose 100, 200, 400, 600, 800 mg, healthy subjects",safe and well tolerated at all doses tested
same,deaths and serious adverse events,[1]; single-dose component,No deaths nor serious adverse events (SAEs) were reported
same,total NASH score,[2]; 15 milligram per kilogram (mpk),lower
same,fibrosis and cell ballooning (H&E staining),[2]; 15 mpk,significantly inhibited
same,fibrosis and cell ballooning (H&E staining),[2]; 50 mpk,significantly inhibited
same,total NASH score,[2]; 50 mpk,lower
same,potency compared with pirfenidone,[2]; NASH model in mice,more potent than pirfenidone
same,effect on CCl4 and western diet (WD) induced NASH (H&E staining),[2]; mice,protective effect
